Test results as given in patent US7485315B2, “Compositions comprising a compound of low solubility and a lipophilic amino acid derivative, uses thereof and process for dissolving a compound of low solubility” (L'Oreal, priority 2001, dated 2009).

Tests used:
[1] = Simple solubility in isopropyl N-lauroylsarcosinate
Experimental: Protocol: The derivatives of low solubility in water are weighed out and placed in a sealed pill bottle. The required amount of solvent is added. The suspension is stirred (magnetic stirring) at 80° C. for not more than 1 hour.
The non-solubility of the active agent in the solvent is characterized macroscopically by a precipitate or just a cloudy solution, and microscopically by the presence of crystals.
The solvent used is isopropyl N-lauroylsarcosinate.

[2] = Dissolution by lipophilic amino acid derivatives without recrystallization; assay type: physicochemical; conditions: in lipophilic amino acid derivatives, after 24 hours at 25° C.
Experimental: By way of illustration, the lipophilic amino acid derivatives used for the purposes of the present patent application allowed the dissolution of: • more than 20% of aminophenol derivatives without recrystallization after three weeks at 25° C., • more than 15% of salicylic acid derivatives without recrystallization after three weeks at 25° C. • about 4% of diosgenin or hecogenin acetate without recrystallization after 24 hours at 25° C.

[3] = content 5% in isopropyl N-lauroylsarcosinate
[4] = content 2% in isopropyl N-lauroylsarcosinate

Stability over time at 25° C. (clear for) [1, 3] | SMILES | Amount dissolved without recrystallization [2] | Stability over time at 25° C. (clear for) [1, 4] | also measured
– | CCCCCCCCCCCCNc1ccnc(N)[n+]1[O-] [2-amino-4-dodecylaminopyrimidine 3-oxide] | – | – | Stability over time at 25° C. (clear for) ([1]; content 1% in isopropyl N-lauroylsarcosinate): clear for 1 day
clear for 7 days | CCCCCCCC(=O)c1ccc(O)c(C(=O)O)c1 [5-n-octanoylsalicylic acid] | – | – | Stability over time at 25° C. (clear for) ([1]; content 9% in isopropyl N-lauroylsarcosinate): clear for 4 days; Stability over time at 25° C. ([1]; content 27% in isopropyl N-lauroylsarcosinate): clear
– | C[C@@H]1CC[C@@]2(OC1)O[C@H]1C[C@H]3[C@@H]4CC=C5C[C@@H](O)CC[C@]5(C)[C@H]4CC[C@]3(C)[C@H]1[C@@H]2C [Diosgenin, 5-spirostene-3-β-ol] | about 4% | clear for 3 weeks | –
– | CC(=O)O[C@H]1CC[C@@]2(C)[C@@H](CC[C@@H]3[C@@H]2CC(=O)[C@]2(C)[C@@H]4[C@H](C[C@@H]32)O[C@]2(CC[C@@H](C)CO2)[C@H]4C)C1 [Hecogenin acetate, (3β, 5α, 25R)-3-hydroxyspirostan-12-one (hecogenin acetate)] | about 4% | clear for 1 day | –
clear for 18 days | CCOC(=O)Nc1ccc(O)cc1 [N-ethoxycarbonyl-para-aminophenol, N-ethoxycarbonyl-4-para-aminophenol] | – | – | Stability over time at 25° C. (clear for) ([1]; content 20% in isopropyl N-lauroylsarcosinate): clear for 6 days; Stability over time at 25° C. (clear for) ([1]; content 23% in isopropyl N-lauroylsarcosinate): clear for 6 days; Stability over time at 25° C. (clear for) ([1]; content 26% in isopropyl N-lauroylsarcosinate): clear for 1 day
